From patent US20260272923A1, “NONSENSE MEDIATED DECAY INHIBITOR COMPOUNDS” (The Johns Hopkins University, priority 2023, published 2026)

Columns and labels:
[1] = system: nonsense mediated decay (NMD); assay: Targeted RNA sequencing of heterozygous indel mutations in NCI-H358 and LS180 cells; type: cell-based; conditions: NCI-H358 and LS180 cells treated in-vitro
From the text: (§1) It was next sought to evaluate whether LY3023414 could relieve repression of indel containing transcripts in cancer cells. The microsatellite stable NCI-H358 and microsatellite instable LS180 lung and colorectal cancer cell lines were chosen respectively. Nearly 40% of heterozygous indel and 25% of nonsense single base-pair mutation containing genes show increased expression of their mutant allele when treated with LY3023414 when evaluated by RNA sequencing (FIG. 2A). […] Heterozygous single nucleotide polymorphism (SNP) Ring Finger Protein 43 (RNF43) and drosha ribonuclease […] (DROSHA) served as controls, and allele ratios remain unchanged with treatment (FIG. 2B). To investigate for changes at the protein level, NCI-H358 cells were treated for 24 hours with either LY3023414 or DMSO.
(§2) Analyzing a wider set of 21 NMD sensitive genes from the RNA-Seq analysis in LS180 confirmed that LY3023414 and SMG1 specific inhibitor increase the same 18 genes with a greater than 80% re-expression rate, in both cell lines. […] As SMG1 inhibition is an off target effect for LY3023414, the concentrations used in this study may result in inhibition of a number of different kinases.
(§3) To confirm disruption of downstream signaling of SMG1, a western blot was performed with phosphorylation specific antibodies for UPF1.

[2] = system: NMD targeted mutant protein (EXOC1, SPTAN1); assay: Western blot of mutant proteins in NCI-H358 and LS180 cells; type: cell-based; conditions: NCI-H358 and LS180
From the text: as §1, §2, §3

[3] = system: nonsense mediated decay (NMD); assay: NCI-H358 and LS180 xenograft tumors in NOD-SCID mice, mutant RNA transcripts and tolerability; type: in vivo
phosphorylated UPF1 = assay: Phospho-UPF1 specific western blot; type: cell-based; conditions: three different cell lines
Protocol: as §2, §3

SMG1 protein = SMG1 protein (Homo sapiens, UniProt Q96Q15); assay: Kinativ assay; type: binding; conditions: 100 nM run in duplicate
[4] = Physical properties related to solubility; type: physicochemical; conditions: compared with previously made SMG1 specific inhibitors
NCI-H358 and LS180 cells = assay: MHC class I HLA presentation of mutant specific peptides by quantitative HPLC-Mass Spectrometry; type: cell-based; conditions: 24 hours in-vitro, pan-HLA immunoprecipitation
Protocol: Downregulating mutated genes with frame shifts via NMD is one mechanism employed by cancer cells to avoid immune surveillance. To confirm the small molecule could alter the immune landscape of a tumor, cell surface presentation of known mutant proteins was assessed in NCI-H358 and LS180 cells. Cells were treated in-vitro for 24 hours with DMSO or the compound of Formula I in duplicate, cross linked and immunoprecipitated with pan-HLA antibodies to obtain cell surface MHC presented peptides. 187 mutation specific peptides were initially identified that could be potentially presented by using the union of NetMHC and Predictor of Immunogenic Epitopes (PRIME) predictions. These predictions were tested by performing HPLC Mass Spectromety (MS) on cells that were treated in-vitro for 24 hours with DMSO or the compound of Formula I, cross linked and immunoprecipitated with pan-HLA antibodies to obtain cell surface MHC presented peptides. Based on those results, heavy isotope labeled peptides were designed for 14 peptides from NCI-H358, and 24 peptides from LS180 cells with high confidence of MS detection. These heavy labeled peptides were then used as internal standard to perform quantitative HPLC-Mass Spectrometry. […] This is consistent with re-expression of mutant protein shown previously by western blot (FIGS. 3C and 4D). […]

NCI-H716 and NCI-2228 = assay: Interferon gamma ELISA in co-culture with human CD8+ T-cells and TP53-CD3 bispecific antibody; type: cell-based
[5] = system: NCI-H716 and NCI-2228 cell lines with and without HLA-A24 expression; assay: Luciferase cell killing co-culture assay; type: cell-based; conditions: with human CD8+ T-cells and bispecific antibody
Protocol: To determine whether this relief of repression is targetable, a bispecific antibody targeting wild type TP53 and CD3 was employed. […] To assess if these novel antigens could be utilized for immune driven cell specific killing, NCI-H716 and NCI-2228 cell lines with and without HLA-A24 expression were labeled with luciferase. […] To establish this effect remained in-vivo, NCI-H716 cells expressing HLA-A24 and luciferase were placed orthotopically in NSG mice. Tumor size was measured by luciferase readings via bioluminescence imaging (BLI).

LLC (Lewis Lung Cancer) = assay: Syngeneic LLC tumor mouse model; type: in vivo, mice
From the text: Murine RENCA (renal) and LLC (Lewis Lung Cancer) cell lines were chosen as they harbor a large number of out of frame indel mutations based on whole exome DNA sequencing (WES) (Table SX-RENCA and LLC mutations). It was confirmed that treatment of these cell lines could stop NMD mediated repression of mutant RNA, and induced expression of exogenous genes controlled by NMD by real time PCR. […]

RENCA (renal) = assay: Syngeneic RENCA tumor mouse model; type: in vivo, mice
Protocol: Confident NMD inhibition with the compound of Formula I was leading to in-vivo changes to the tumor and its immune environment and it was evaluated whether these alterations could be taken advantage of in an immune competent system. Murine RENCA (renal) and LLC (Lewis Lung Cancer) cell lines were chosen as they harbor a large number of out of frame indel mutations based on whole exome DNA sequencing (WES) (Table SX-RENCA and LLC mutations). It was confirmed that treatment of these cell lines could stop NMD mediated repression of mutant RNA, and induced expression of exogenous genes controlled by NMD by real time PCR. Cells were placed in the mammary fat pad of C57BL/6N (LLC also known as LL2) and BALB/c (RENCA) mice, randomly sorted animals after tumors became palpable ensuring to balance the tumor size of each group, and then treated with vehicle or the compound of Formula I (FIG. 6A).

melanoma line B16-F10 = assay: Syngeneic B16-F10 melanoma model; type: in vivo

SMG1 protein, sequence (Q96Q15 whole entry): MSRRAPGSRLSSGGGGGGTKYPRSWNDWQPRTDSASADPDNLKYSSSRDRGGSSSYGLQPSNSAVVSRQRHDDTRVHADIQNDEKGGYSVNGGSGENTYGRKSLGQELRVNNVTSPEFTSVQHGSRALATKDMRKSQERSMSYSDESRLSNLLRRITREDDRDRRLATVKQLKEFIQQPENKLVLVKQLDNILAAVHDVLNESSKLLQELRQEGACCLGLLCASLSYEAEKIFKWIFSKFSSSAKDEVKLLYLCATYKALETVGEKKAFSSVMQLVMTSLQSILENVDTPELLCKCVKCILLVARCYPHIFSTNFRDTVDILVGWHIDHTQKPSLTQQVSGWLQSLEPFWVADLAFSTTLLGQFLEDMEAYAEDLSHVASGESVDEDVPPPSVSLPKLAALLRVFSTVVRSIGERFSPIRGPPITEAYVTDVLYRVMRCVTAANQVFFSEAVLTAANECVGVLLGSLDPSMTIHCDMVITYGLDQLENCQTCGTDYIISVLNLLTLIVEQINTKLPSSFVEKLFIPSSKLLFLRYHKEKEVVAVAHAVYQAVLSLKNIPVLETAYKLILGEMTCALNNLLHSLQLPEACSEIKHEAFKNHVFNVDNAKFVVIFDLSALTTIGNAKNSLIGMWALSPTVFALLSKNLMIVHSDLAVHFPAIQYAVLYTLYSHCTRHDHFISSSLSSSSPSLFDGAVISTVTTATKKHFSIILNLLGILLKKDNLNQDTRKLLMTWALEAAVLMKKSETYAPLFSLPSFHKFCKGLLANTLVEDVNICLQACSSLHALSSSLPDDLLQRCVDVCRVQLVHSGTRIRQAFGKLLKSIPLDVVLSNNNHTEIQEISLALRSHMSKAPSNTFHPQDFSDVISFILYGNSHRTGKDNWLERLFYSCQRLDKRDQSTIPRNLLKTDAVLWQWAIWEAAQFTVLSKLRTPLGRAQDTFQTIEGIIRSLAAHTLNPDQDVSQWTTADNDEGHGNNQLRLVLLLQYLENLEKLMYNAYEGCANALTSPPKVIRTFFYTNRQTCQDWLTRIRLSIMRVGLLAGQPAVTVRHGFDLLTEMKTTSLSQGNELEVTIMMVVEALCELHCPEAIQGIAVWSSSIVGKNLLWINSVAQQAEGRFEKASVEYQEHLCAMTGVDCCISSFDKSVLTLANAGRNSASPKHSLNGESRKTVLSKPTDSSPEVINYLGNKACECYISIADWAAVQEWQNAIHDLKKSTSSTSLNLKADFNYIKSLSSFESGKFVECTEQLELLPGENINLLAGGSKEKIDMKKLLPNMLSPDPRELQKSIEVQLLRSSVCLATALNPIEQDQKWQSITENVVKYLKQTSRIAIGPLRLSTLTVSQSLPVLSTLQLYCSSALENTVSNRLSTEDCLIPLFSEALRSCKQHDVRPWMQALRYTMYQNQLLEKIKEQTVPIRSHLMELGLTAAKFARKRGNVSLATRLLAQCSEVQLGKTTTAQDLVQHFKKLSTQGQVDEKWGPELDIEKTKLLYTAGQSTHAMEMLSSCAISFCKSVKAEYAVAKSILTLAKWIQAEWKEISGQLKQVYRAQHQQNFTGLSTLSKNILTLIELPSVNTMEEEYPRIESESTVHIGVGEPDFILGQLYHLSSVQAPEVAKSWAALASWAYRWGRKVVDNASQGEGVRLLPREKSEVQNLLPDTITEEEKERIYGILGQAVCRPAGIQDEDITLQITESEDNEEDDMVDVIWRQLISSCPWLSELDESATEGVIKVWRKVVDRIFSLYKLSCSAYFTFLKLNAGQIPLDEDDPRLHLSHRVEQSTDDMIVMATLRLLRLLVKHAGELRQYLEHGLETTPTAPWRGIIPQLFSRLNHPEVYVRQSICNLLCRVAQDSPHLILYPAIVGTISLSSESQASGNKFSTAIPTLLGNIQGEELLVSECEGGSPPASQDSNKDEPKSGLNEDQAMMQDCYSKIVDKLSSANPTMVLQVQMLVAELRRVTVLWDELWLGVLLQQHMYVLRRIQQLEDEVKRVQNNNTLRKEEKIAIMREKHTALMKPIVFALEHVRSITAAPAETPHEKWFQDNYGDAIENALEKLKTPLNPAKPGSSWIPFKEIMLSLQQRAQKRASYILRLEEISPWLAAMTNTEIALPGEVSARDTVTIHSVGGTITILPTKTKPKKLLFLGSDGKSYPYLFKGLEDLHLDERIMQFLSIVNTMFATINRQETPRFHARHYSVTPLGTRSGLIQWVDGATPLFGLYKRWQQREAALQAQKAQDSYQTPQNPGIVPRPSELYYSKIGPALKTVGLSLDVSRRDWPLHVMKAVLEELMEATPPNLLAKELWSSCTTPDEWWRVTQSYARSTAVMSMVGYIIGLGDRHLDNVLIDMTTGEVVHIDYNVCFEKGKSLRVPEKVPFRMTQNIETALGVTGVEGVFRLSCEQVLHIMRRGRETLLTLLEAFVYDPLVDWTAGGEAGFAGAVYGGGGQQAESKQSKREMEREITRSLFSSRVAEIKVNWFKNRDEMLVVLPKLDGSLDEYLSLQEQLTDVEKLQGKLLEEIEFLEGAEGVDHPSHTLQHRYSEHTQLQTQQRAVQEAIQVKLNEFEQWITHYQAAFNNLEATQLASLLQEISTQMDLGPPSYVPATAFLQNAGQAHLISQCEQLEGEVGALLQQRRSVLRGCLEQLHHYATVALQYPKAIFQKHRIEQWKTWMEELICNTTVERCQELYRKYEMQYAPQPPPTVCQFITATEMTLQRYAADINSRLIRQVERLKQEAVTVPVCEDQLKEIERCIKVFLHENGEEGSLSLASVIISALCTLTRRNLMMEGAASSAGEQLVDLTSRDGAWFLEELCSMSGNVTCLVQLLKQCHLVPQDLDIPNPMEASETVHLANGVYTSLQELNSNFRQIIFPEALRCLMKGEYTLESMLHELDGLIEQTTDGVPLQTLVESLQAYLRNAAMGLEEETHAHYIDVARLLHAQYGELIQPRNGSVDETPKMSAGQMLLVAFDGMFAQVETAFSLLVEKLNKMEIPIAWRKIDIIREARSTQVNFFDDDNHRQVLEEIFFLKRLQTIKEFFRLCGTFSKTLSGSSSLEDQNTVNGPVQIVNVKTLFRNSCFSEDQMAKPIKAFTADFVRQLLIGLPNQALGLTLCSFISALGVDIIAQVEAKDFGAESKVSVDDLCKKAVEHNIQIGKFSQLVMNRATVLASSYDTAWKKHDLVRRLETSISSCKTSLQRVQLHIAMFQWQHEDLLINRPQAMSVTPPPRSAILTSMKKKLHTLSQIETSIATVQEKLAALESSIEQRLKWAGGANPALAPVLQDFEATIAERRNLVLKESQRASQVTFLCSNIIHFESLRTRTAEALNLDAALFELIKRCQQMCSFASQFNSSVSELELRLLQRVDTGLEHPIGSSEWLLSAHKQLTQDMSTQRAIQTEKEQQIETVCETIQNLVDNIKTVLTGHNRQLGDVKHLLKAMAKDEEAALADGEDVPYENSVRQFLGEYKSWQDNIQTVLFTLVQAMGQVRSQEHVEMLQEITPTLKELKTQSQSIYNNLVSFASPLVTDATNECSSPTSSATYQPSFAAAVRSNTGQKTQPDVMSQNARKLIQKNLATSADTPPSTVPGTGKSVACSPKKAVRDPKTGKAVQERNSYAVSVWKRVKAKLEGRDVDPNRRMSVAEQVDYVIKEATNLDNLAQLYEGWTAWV

## CNC(=O)Nc1ccc(-c2cc(-c3ccnc(Nc4ccc(Cl)c(S(=O)(=O)N5CCNCC5)c4)n3)ccn2)cc1 [compound of Formula I]
[1]
  bioactive concentration range (dose response curves): bioactive in the nanomolar range
[2]
  mutant protein expression (western blot): induce expression of the NMD targeted mutant protein
[3]; doses up to 50 mg/kg
  toxicity related behavior (e.g., hunching, lethargy): did not show any toxicity related behavior
[3]; intraperitoneal (IP)
  mutant transcript levels in tumors relative to untreated mice: increases in mutant transcript levels
Phosphorylated UPF1
  amount of phosphorylated UPF1: strongly decreased the amount of phosphorylated UPF1
SMG1 protein
  specificity for SMG1 over other kinases: maintains high specificity for SMG1 protein over other kinases
[4]
  physical properties related to solubility: more desirable physical properties related to solubility
NCI-H358 and LS180 cells
  cell surface MHC presentation of mutant specific neoantigen: presence of a neoantigen specific to the mutant alleles of two genes in NCI-H358 and two other genes in LS180 cells
NCI-H716 and NCI-2228; with bispecific antibody and human CD8+ T-cells
  interferon gamma release: increase in interferon gamma release
NCI-H716 and NCI-2228; without bispecific antibody
  interferon gamma levels: no change in interferon gamma levels
[5]
  cell killing: cell killing only in cells with HLA-A24 present
LLC (Lewis Lung Cancer); C57BL/6N background
  weight loss: No weight loss
LLC (Lewis Lung Cancer); C57BL/6N mice, 30 mg/kg
  tumor growth: Significant slowing of tumor growth
LLC (Lewis Lung Cancer); immunodeficient C57BL/6N SCID mice
  tumor growth in immunosuppressed mice: minimal or no difference in cell growth
RENCA (renal); BALB/c background, within tolerable limits
  weight loss: Some weight loss
RENCA (renal); BALB/c mice, 20 mg/kg
  tumor growth: Significant slowing of tumor growth
RENCA (renal); immunodeficient NSG (BALB/c) mice
  tumor growth in immunosuppressed mice: minimal or no difference in cell growth
Melanoma line B16-F10
  tumor volume: showed a change in tumor volume
